Results as given in patent publication US9738634B2, “Heterocyclic amide compound and herbicide” (SYNGENTA PARTICIPATIONS AG, priority 2013, dated 2017).

Columns and labels:
Assay type in all cases: in vivo
barnyard grass [1] = assay: Test Example 1: weedkilling efficacy, preemergent weed treatment in the submerged state; A: barnyard grass; conditions: treatment dosage 320 g/ha
Method in brief: (§1)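 Pots of alluvial soil were flooded to a 4 cm depth. Mixed weed seeds were sown and 2.5 leaf-stage rice seedlings transplanted. On sowing day, water-diluted emulsion was applied to the water surface (dose in g/ha). After 3 weeks at 25–30 °C, effects were rated.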

bulrush [2] = assay: Test Example 1: weedkilling efficacy, preemergent weed treatment in the submerged state; B: bulrush; conditions: treatment dosage 320 g/ha
Method in brief: as §1

oval-leafed pondweed [3] = assay: Test Example 1: weedkilling efficacy, preemergent weed treatment in the submerged state; C: oval-leafed pondweed; conditions: treatment dosage 320 g/ha
Method in brief: as §1

transplanted rice = assay: Test Example 1: preemergent weed treatment in the submerged state, effect on crop; a: transplanted rice; conditions: treatment dosage 320 g/ha
Method in brief: as §1

barnyard grass [4] = assay: Test Example 2: weedkilling efficacy, growth period weed treatment in the submerged state; A: barnyard grass; conditions: treatment dosage 320 g/ha
Method in brief: (§2)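 Weeds treated at the 1-2 leaf stage by application of diluted emulsion onto floodwater (4 cm depth, alluvial soil) at specified g/ha. Grown in greenhouse at 25 to 30° C; herbicidal effect rated three weeks after treatment.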

bulrush [5] = assay: Test Example 2: weedkilling efficacy, growth period weed treatment in the submerged state; B: bulrush; conditions: treatment dosage 320 g/ha
Method in brief: as §2

oval-leafed pondweed [6] = assay: Test Example 2: weedkilling efficacy, growth period weed treatment in the submerged state; C: oval-leafed pondweed; conditions: treatment dosage 320 g/ha
Method in brief: as §2

crabgrass = assay: Test Example 3: weedkilling efficacy through soil treatment; D: crabgrass; conditions: soil treatment, treatment dosage 320 g/ha
Method in brief: (§3)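 Crop and weed responses were judged three weeks after a uniform surface spray of the water-diluted emulsion at the given g/ha rate. Seeds sat beneath about 1.5 cm of sterilized diluvial soil, and boxes stood in a greenhouse at 25 to 30° C.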

green foxtail = assay: Test Example 3: weedkilling efficacy through soil treatment; E: green foxtail; conditions: soil treatment, treatment dosage 320 g/ha
Method in brief: as §3

barnyard grass [7] = assay: Test Example 3: weedkilling efficacy through soil treatment; F: barnyard grass; conditions: soil treatment, treatment dosage 320 g/ha
Method in brief: as §3

wild oat = assay: Test Example 3: weedkilling efficacy through soil treatment; G: wild oat; conditions: soil treatment, treatment dosage 320 g/ha
Method in brief: as §3

black-grass = assay: Test Example 3: weedkilling efficacy through soil treatment; H: black-grass; conditions: soil treatment, treatment dosage 320 g/ha
Method in brief: as §3

Italian ryegrass = assay: Test Example 3: weedkilling efficacy through soil treatment; I: Italian ryegrass; conditions: soil treatment, treatment dosage 320 g/ha
Method in brief: as §3

common wind-grass = assay: Test Example 3: weedkilling efficacy through soil treatment; J: common wind-grass; conditions: soil treatment, treatment dosage 320 g/ha
Method in brief: as §3

Indian mallow = assay: Test Example 3: weedkilling efficacy through soil treatment; K: Indian mallow; conditions: soil treatment, treatment dosage 320 g/ha
Method in brief: as §3

redroot pigweed = assay: Test Example 3: weedkilling efficacy through soil treatment; L: redroot pigweed; conditions: soil treatment, treatment dosage 320 g/ha
Method in brief: as §3

fig-leafed goosefoot = assay: Test Example 3: weedkilling efficacy through soil treatment; M: fig-leafed goosefoot; conditions: soil treatment, treatment dosage 320 g/ha
Method in brief: as §3

chickweed = assay: Test Example 3: weedkilling efficacy through soil treatment; N: chickweed; conditions: soil treatment, treatment dosage 320 g/ha
Method in brief: as §3

catchweed = assay: Test Example 3: weedkilling efficacy through soil treatment; O: catchweed; conditions: soil treatment, treatment dosage 320 g/ha
Method in brief: as §3

birds-eye speedwell = assay: Test Example 3: weedkilling efficacy through soil treatment; p: birds-eye speedwell; conditions: soil treatment, treatment dosage 320 g/ha
Method in brief: as §3

directly sown rice = assay: Test Example 3: soil treatment, effect on crop; b: directly sown rice; conditions: soil treatment, treatment dosage 320 g/ha
Method in brief: as §3

corn = assay: Test Example 3: soil treatment, effect on crop; c: corn; conditions: soil treatment, treatment dosage 320 g/ha
Method in brief: as §3

soybean = assay: Test Example 3: soil treatment, effect on crop; d: soybean; conditions: soil treatment, treatment dosage 320 g/ha
Method in brief: as §3

wheat = assay: Test Example 3: soil treatment, effect on crop; e: wheat; conditions: soil treatment, treatment dosage 320 g/ha
Method in brief: as §3

beet = assay: Test Example 3: soil treatment, effect on crop; f: beet; conditions: soil treatment, treatment dosage 320 g/ha
Method in brief: as §3

rapeseed = assay: Test Example 3: soil treatment, effect on crop; g: rapeseed; conditions: soil treatment, treatment dosage 320 g/ha
Method in brief: as §3

Row | SMILES | A: barnyard grass, weed kill grade (barnyard grass [1]) | B: bulrush, weed kill grade (bulrush [2]) | C: oval-leafed pondweed, weed kill grade (oval-leafed pondweed [3]) | a: transplanted rice, effect on crop grade (transplanted rice) | A (barnyard grass) weedkilling efficacy grade (barnyard grass [4]) | B (bulrush) weedkilling efficacy grade (bulrush [5]) | C (oval-leafed pondweed) weedkilling efficacy grade (oval-leafed pondweed [6]) | D: crabgrass, weedkilling efficacy grade (crabgrass) | E: green foxtail, weedkilling efficacy grade (green foxtail) | F: barnyard grass, weedkilling efficacy grade (barnyard grass [7]) | G: wild oat, weedkilling efficacy grade (wild oat) | H: black-grass, weedkilling efficacy grade (black-grass) | I: Italian ryegrass, weedkilling efficacy grade (Italian ryegrass) | J: common wind-grass, weedkilling efficacy grade (common wind-grass) | K: Indian mallow, weedkilling efficacy grade (Indian mallow) | L: redroot pigweed, weedkilling efficacy grade (redroot pigweed) | M: fig-leafed goosefoot, weedkilling efficacy grade (fig-leafed goosefoot) | N: chickweed, weedkilling efficacy grade (chickweed) | O: catchweed, weedkilling efficacy grade (catchweed) | P: birds-eye speedwell, weedkilling efficacy grade (birds-eye speedwell) | other results
1 | CC(C)(C(=O)Nc1cc(Cl)cc(-c2ccccc2)n1)N1COCN(c2ccccc2)C1=O [A-2-31] | 5 (weed kill ratio 90% or more, (practically complete withering)) | 5 (weed kill ratio 90% or more, (practically complete withering)) | 5 (weed kill ratio 90% or more, (practically complete withering)) | 0 (weed kill ratio 5% or less (practically no effect)) | 5 (weed kill ratio 90% or more, (practically complete withering)) | 5 (weed kill ratio 90% or more, (practically complete withering)) | 4 (weed kill ratio 70% or more, less than 90%) | 2 (weed kill ratio 20% or more, less than 40%) | 2 (weed kill ratio 20% or more, less than 40%) | 2 (weed kill ratio 20% or more, less than 40%) | 2 (weed kill ratio 20% or more, less than 40%) | 3 (weed kill ratio 40% or more, less than 70%) | 1 (weed kill ratio 5% or more, less than 20%) | 4 (weed kill ratio 70% or more, less than 90%) | 0 (weed kill ratio 5% or less (practically no effect)) | 0 (weed kill ratio 5% or less (practically no effect)) | 2 (weed kill ratio 20% or more, less than 40%) | 3 (weed kill ratio 40% or more, less than 70%) | 3 (weed kill ratio 40% or more, less than 70%) | 3 (weed kill ratio 40% or more, less than 70%) | b: directly sown rice, effect on crop grade (directly sown rice): 0 (weed kill ratio 5% or less (practically no effect)); c: corn, effect on crop grade (corn): 0 (weed kill ratio 5% or less (practically no effect)); d: soybean, effect on crop grade (soybean): 0 (weed kill ratio 5% or less (practically no effect)); e: wheat, effect on crop grade (wheat): 0 (weed kill ratio 5% or less (practically no effect)); f: beet, effect on crop grade (beet): 0 (weed kill ratio 5% or less (practically no effect)); g: rapeseed, effect on crop grade (rapeseed): 0 (weed kill ratio 5% or less (practically no effect))
2 | COc1cc(Cl)cc(NC(=O)C(C)(C)N2COCN(c3ccccc3)C2=O)n1 [A-2-32] | 5 (weed kill ratio 90% or more, (practically complete withering)) | 5 (weed kill ratio 90% or more, (practically complete withering)) | 5 (weed kill ratio 90% or more, (practically complete withering)) | 4 (weed kill ratio 70% or more, less than 90%) | 5 (weed kill ratio 90% or more, (practically complete withering)) | 5 (weed kill ratio 90% or more, (practically complete withering)) | 5 (weed kill ratio 90% or more, (practically complete withering)) | 5 (weed kill ratio 90% or more, (practically complete withering)) | 5 (weed kill ratio 90% or more, (practically complete withering)) | 5 (weed kill ratio 90% or more, (practically complete withering)) | 5 (weed kill ratio 90% or more, (practically complete withering)) | 5 (weed kill ratio 90% or more, (practically complete withering)) | 5 (weed kill ratio 90% or more, (practically complete withering)) | 5 (weed kill ratio 90% or more, (practically complete withering)) | 0 (weed kill ratio 5% or less (practically no effect)) | 3 (weed kill ratio 40% or more, less than 70%) | 5 (weed kill ratio 90% or more, (practically complete withering)) | 4 (weed kill ratio 70% or more, less than 90%) | 5 (weed kill ratio 90% or more, (practically complete withering)) | 5 (weed kill ratio 90% or more, (practically complete withering)) | b: directly sown rice, effect on crop grade (directly sown rice): 2 (weed kill ratio 20% or more, less than 40%); c: corn, effect on crop grade (corn): 1 (weed kill ratio 5% or more, less than 20%); d: soybean, effect on crop grade (soybean): 0 (weed kill ratio 5% or less (practically no effect)); e: wheat, effect on crop grade (wheat): 0 (weed kill ratio 5% or less (practically no effect)); f: beet, effect on crop grade (beet): 4 (weed kill ratio 70% or more, less than 90%); g: rapeseed, effect on crop grade (rapeseed): 4 (weed kill ratio 70% or more, less than 90%)
3 | CC(C)(C(=O)Nc1cc(Oc2ccccc2)cc(Cl)n1)N1COCN(c2ccccc2)C1=O [A-2-36] | 5 (weed kill ratio 90% or more, (practically complete withering)) | 5 (weed kill ratio 90% or more, (practically complete withering)) | 5 (weed kill ratio 90% or more, (practically complete withering)) | 2 (weed kill ratio 20% or more, less than 40%) | 5 (weed kill ratio 90% or more, (practically complete withering)) | 3 (weed kill ratio 40% or more, less than 70%) | 5 (weed kill ratio 90% or more, (practically complete withering)) | 5 (weed kill ratio 90% or more, (practically complete withering)) | 5 (weed kill ratio 90% or more, (practically complete withering)) | 4 (weed kill ratio 70% or more, less than 90%) | 0 (weed kill ratio 5% or less (practically no effect)) | 5 (weed kill ratio 90% or more, (practically complete withering)) | 5 (weed kill ratio 90% or more, (practically complete withering)) | 5 (weed kill ratio 90% or more, (practically complete withering)) | 0 (weed kill ratio 5% or less (practically no effect)) | 3 (weed kill ratio 40% or more, less than 70%) | 3 (weed kill ratio 40% or more, less than 70%) | 3 (weed kill ratio 40% or more, less than 70%) | 0 (weed kill ratio 5% or less (practically no effect)) | 4 (weed kill ratio 70% or more, less than 90%) | b: directly sown rice, effect on crop grade (directly sown rice): 0 (weed kill ratio 5% or less (practically no effect)); c: corn, effect on crop grade (corn): 0 (weed kill ratio 5% or less (practically no effect)); d: soybean, effect on crop grade (soybean): 0 (weed kill ratio 5% or less (practically no effect)); e: wheat, effect on crop grade (wheat): 0 (weed kill ratio 5% or less (practically no effect)); f: beet, effect on crop grade (beet): 2 (weed kill ratio 20% or more, less than 40%); g: rapeseed, effect on crop grade (rapeseed): 1 (weed kill ratio 5% or more, less than 20%)
